Data from patent US9434711B2 (Janssen Pharmaceutica, NV, priority 2007, dated 2016).
pIC50: −log10 of the molar value.

Tests used:
canine TRPM8 = canine TRPM8 (Canis lupus familiaris, UniProt Q1A7N1); test: In Vitro Canine TRPM8 Functional Assay (Ca2+ fluorescence, icilin activation); type: cell-based; conditions: for pIC50: HEK293 cells stably expressing canine TRPM8, icilin activation, eight-point dose-response, read-out: IC50; for inhibition at 0.5 µM: compound at 0.5 μM, read-out: % Inh @ 0.5; for inhibition at 0.5 µM / inhibition at 0.2 µM / % Inh @ 0.2 (μM): canine TRPM8, icilin activation; for inhibition at 0.2 µM / % Inh @ 0.2 (μM): compound at 0.2 μM; for inhibition at 0.2 µM: read-out: % Inh @ 0.2
Sequence of canine TRPM8 (Q1A7N1 1-1104): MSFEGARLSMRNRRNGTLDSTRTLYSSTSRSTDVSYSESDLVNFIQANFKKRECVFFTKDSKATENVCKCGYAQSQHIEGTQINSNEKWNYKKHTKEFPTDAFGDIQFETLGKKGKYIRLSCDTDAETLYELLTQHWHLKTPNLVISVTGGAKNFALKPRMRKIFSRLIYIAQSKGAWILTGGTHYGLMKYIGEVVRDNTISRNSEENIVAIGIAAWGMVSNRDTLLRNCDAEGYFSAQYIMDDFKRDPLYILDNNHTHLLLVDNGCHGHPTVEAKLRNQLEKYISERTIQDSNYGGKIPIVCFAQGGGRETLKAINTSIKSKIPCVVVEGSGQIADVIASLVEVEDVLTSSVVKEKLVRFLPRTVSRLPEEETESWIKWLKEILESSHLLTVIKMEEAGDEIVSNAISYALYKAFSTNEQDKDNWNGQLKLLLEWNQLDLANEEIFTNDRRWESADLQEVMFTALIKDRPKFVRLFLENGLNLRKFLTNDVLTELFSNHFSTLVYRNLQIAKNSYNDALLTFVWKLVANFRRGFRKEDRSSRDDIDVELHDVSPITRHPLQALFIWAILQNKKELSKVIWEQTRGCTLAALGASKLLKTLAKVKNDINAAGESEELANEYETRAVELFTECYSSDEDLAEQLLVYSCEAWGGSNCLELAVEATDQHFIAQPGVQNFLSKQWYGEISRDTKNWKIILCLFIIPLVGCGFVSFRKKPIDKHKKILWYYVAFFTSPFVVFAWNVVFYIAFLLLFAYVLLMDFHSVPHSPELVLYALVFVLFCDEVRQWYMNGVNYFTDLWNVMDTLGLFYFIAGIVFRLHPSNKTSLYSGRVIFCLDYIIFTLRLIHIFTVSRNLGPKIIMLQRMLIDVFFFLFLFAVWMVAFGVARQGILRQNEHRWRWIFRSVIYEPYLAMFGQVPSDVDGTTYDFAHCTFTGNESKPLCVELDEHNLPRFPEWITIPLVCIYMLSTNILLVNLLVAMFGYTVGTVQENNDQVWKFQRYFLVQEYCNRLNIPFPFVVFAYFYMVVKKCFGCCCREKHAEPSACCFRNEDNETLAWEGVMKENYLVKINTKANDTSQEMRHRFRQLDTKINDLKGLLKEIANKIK
In short: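 Eight-point dose-response curves in quadruplicate gave EC50 or IC50 values from a Ca2+-sensitive dye assay in HEK293 cells stably carrying canine TRPM8. Icilin, dosed near its 80% maximal level, followed a 5 min compound exposure.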

Male Sprague Dawley rats [1] = test: Reversal of Icilin-Induced Behaviors in Rats; type: in vivo; conditions: Rattus norvegicus, po, 1 h, 30 mg/kg p.o., 1 h post-icilin
Experimental: Male Sprague Dawley rats (225-450 g, Charles River Labs, n=4-6/treatment) were used to evaluate the ability of selected compounds of the formula (I) to reverse icilin-induced “wet-dog” shakes. Icilin was administered in PEG-400 or 10% solutol/H2O, at 1.0 or 3.0 mg/kg, i.p. and spontaneous “wet-dog” shakes (WDS) were counted 10-20 minutes post-icilin. […] Results are presented as a percent inhibition of shakes, which was calculated as [1-(test compound WDS count/vehicle WDS count)]×100.

Male Sprague Dawley rats [2] = test: Chronic Constriction Injury (CCI)-Induced Model of Neuropathic Pain, Acetone-Induced Hypersensitivity; type: in vivo, rat
From the text: Male Sprague Dawley rats (225-450 g; n=5-8/treatment) were used to evaluate the ability of selected compounds of the formula (I) to reverse CCI-induced cold hypersensitivity. Four loose ligatures of 4-0 chromic gut were surgically placed around the left sciatic nerve under inhalation anesthesia as described by Bennett et al (Bennett G J, Xie Y K. Pain 1988, 33(1): 87-107). Fourteen to 35 days following CCI surgery, subjects were placed in elevated observation chambers containing wire mesh floors and five applications of acetone (0.05 mL/application separated by approximately 5 minutes) were spritzed onto the plantar surface of the paw using a multidose syringe. An abrupt withdrawal or lifting of the paw was considered a positive response. The number of positive responses was recorded for each rat over the five trials. Following baseline withdrawal determinations, compounds of formula (I) are administered in an appropriate vehicle, such as hydroxypropyl-β-cyclodextrin (HP β CD), methylcellulose, Methocel, 10% Solutol, or H2O, or the like, by the appropriate route, i.p. or p.o. […] Results are presented as a percent inhibition of […], which was calculated for each subject as [1−(test compound withdrawals/pre-test withdrawals)]×100 and then averaged by treatment.

Male Sprague Dawley rats [3] = test: Inhibition of Icilin-Induced "Wet-Dog" Shakes in Rats; type: in vivo, rat; conditions: Na salt form; for ED50: Rattus norvegicus, po
Experimental: Male Sprague Dawley rats (220-450 g, Charles River Labs, n=6-9/treatment) were used to evaluate the ability of selected compounds of the formula (I) to block icilin-induced “wet-dog” shakes (WDS). Compounds of the formula (I) were administered in an appropriate vehicle, such as hydroxypropyl-β-cyclodextrin (HPβCD), methocellulose, 10% Solutol, or H2O, or the like, by the appropriate route, i.p. or p.o., 30-120 minutes before icilin. Icilin was administered in PEG-400 or 10% solutol/H2O, at 1.0 or 3.0 mg/kg, i.p. and spontaneous “wet-dog” shakes were counted 10-20 minutes post-icilin. Results are presented as a percent inhibition of shakes, which was calculated as [1-(test compound WDS count/vehicle WDS count)]×100.

[4] = 0.5 h, HPbCD, 30 min pre-icilin

pIC50 (canine TRPM8) | inhibition at 0.5 µM (canine TRPM8) [%] | inhibition at 0.2 µM (canine TRPM8) [%] | SMILES | inhibition in vivo at 30 mg/kg (Male Sprague Dawley rats [1]) [%] | further results
7.79 | 99 |  | Cc1c(N(Cc2ccc(F)c(F)c2)S(=O)(=O)c2cn(C)cn2)sc2ccccc12 [Compound 2, N-(3,4-Difluoro-benzyl)-N-(3-methyl-benzo[b]thiophen-2-yl)-1-methyl-1H-imidazole-4-sulfonamide] | 18 | 
8.14 | 97 |  | O=S(=O)(c1ccccc1)N(Cc1ccc(F)c(C(F)(F)F)c1)c1sc2ccccc2c1Cl [Compound 7, N-(3-Chloro-benzo[b]thiophen-2-yl)-N-(4-fluoro-3-trifluoromethyl-benzyl)-benzenesulfonamide] | 65 | inhibition in vivo at 30 mg/kg (Male Sprague Dawley rats [2]; Rattus norvegicus, ip, 2 h, 30 mg/kg i.p., 10% Solutol, pretreatment 2 hr, CO2H form, read-out: Percent Inhibition): 66%; inhibition in vivo at 30 mg/kg (Male Sprague Dawley rats [2]; Rattus norvegicus, po, 1 h, 30 mg/kg p.o., 10% Solutol, pretreatment 1 hr, CO2H form, read-out: Percent Inhibition): 47%
8.52 | 97 |  | Cc1c(N(Cc2ccc(OC(F)(F)F)cc2)S(=O)(=O)c2cccnc2)sc2ccccc12 [Compound 13, N-(3-Methyl-benzo[b]thiophen-2-yl)-N-(4-trifluoromethoxy-benzyl)-pyridine-3-sulfonamide] | 28 | 
7.72 | 99 |  | Cc1c(N(Cc2cccc3cccnc23)S(=O)(=O)c2cccnc2)sc2ccccc12 [Compound 14, N-(3-Methyl-benzo[b]thiophen-2-yl)-N-(quinolin-8-ylmethyl)-pyridine-3-sulfonamide] | -16 | 
8.30 | 99 |  | Cc1c(N(Cc2ccc(F)c(F)c2)S(=O)(=O)c2ccccc2)sc2ccccc12 [Compound 125, N-(3,4-Difluoro-benzyl)-N-(3-methyl-benzo[b]thiophen-2-yl)-benzenesulfonamide] | 39 | 
8.68 | 98 |  | O=S(=O)(c1ccccc1)N(Cc1ccc(F)c(F)c1)c1sc2ccccc2c1Br [Compound 148, N-(3-Bromo-benzo[b]thiophen-2-yl)-N-(3,4-difluoro-benzyl)-benzenesulfonamide] | 33 | 
8.15 | 101 | 102 | O=S(=O)(c1cccnc1)N(Cc1ccc(F)c(F)c1)c1sc2ccccc2c1Br [Compound 149, N-(3-Bromo-benzo[b]thiophen-2-yl)-N-(3,4-difluoro-benzyl)-pyridin-3-yl-sulfonamide] | -3 | 
7.85 | 96 |  | O=S(=O)(c1ccccc1)N(Cc1ccccn1)c1sc2ccccc2c1Br [Compound 168, N-(3-Bromo-benzo[b]thiophen-2-yl)-N-(pyridin-2-ylmethyl)-benzenesulfonamide] | -29 | 
8.60 | 99 |  | O=S(=O)(c1ccccc1)N(Cc1ccc(OC(F)(F)F)cc1)c1sc2ccccc2c1Br [Compound 174, N-(3-Bromo-benzo[b]thiophen-2-yl)-N-(4-trifluoromethoxy-benzyl)-benzenesulfonamide] | 45 | 
7.91 | 101 | 99 | O=S(=O)(c1cccnc1)N(Cc1ccc(F)c(C(F)(F)F)c1)c1sc2ccccc2c1Br [Compound 188, N-(3-Bromo-benzo[b]thiophen-2-yl)-N-(4-fluoro-3-trifluoromethyl-benzyl)-pyridin-3-yl-sulfonamide] | 7 | 
 |  | 98 | O=C(O)c1ccc(S(=O)(=O)N(CCC(F)(F)F)c2sc3ccccc3c2Br)cc1 [Compound 271, N-(3-Bromo-benzo[b]thiophen-2-yl)-N-(3,3,3-trifluoro-propyl)-4-carboxy-benzenesulfonamide] |  | ED50 (Male Sprague Dawley rats [3]; 0.5 h, Water, 30 min pre-icilin): 5.7 mg/kg; inhibition in vivo at 10 mg/kg (Male Sprague Dawley rats [2]; Rattus norvegicus, po, 1 h, 10 mg/kg p.o., HPbCD, pretreatment 1 hr, Na salt form, read-out: Percent Inhibition): 24%; inhibition in vivo at 100 mg/kg (Male Sprague Dawley rats [2]; Rattus norvegicus, po, 1 h, 100 mg/kg p.o., HPbCD, pretreatment 1 hr, Na salt form, read-out: Percent Inhibition): 56%
8.21 |  | 97 | CCCCN(c1sc2ccccc2c1Br)S(=O)(=O)c1ccc(C(=O)O)cc1 [Compound 272, N-(3-Bromo-benzo[b]thiophen-2-yl)-N-(butyl)-4-carboxy-benzenesulfonamide] |  | ED50 (Male Sprague Dawley rats [3]; [4]): 22 mg/kg; inhibition in vivo at 30 mg/kg (Male Sprague Dawley rats [2]; Rattus norvegicus, po, 1 h, 30 mg/kg p.o., HPbCD, pretreatment 1 hr, Na salt form, read-out: Percent Inhibition): 31%
7.74 |  | 96 | O=C(O)c1ccc(S(=O)(=O)N(CC2CC2)c2sc3ccccc3c2Br)cc1 [Compound 273, N-(3-Bromo-benzo[b]thiophen-2-yl)-N-(cyclopropylmethyl)-4-carboxy-benzenesulfonamide] |  | ED50 (Male Sprague Dawley rats [3]; [4]): 53 mg/kg; inhibition in vivo at 30 mg/kg (Male Sprague Dawley rats [2]; Rattus norvegicus, po, 0.5 h, 30 mg/kg p.o., HPbCD, pretreatment 0.5 hr, Na salt form, read-out: Percent Inhibition): 49%
8.52 |  | 101 | O=C(O)c1ccc(S(=O)(=O)N(CCCCC(F)(F)F)c2sc3ccccc3c2Br)cc1 [Compound 395, N-(3-Bromo-benzo[b]thiophen-2-yl)-N-(5,5,5-trifluoro-pentyl)-4-carboxy-benzenesulfonamide] |  | ED50 (Male Sprague Dawley rats [3]; 1 h, Water, 60 min pre-icilin): 7.6 mg/kg; inhibition in vivo at 30 mg/kg (Male Sprague Dawley rats [2]; Rattus norvegicus, po, 2 h, 30 mg/kg p.o., Water, pretreatment 2 hr, Na salt form, read-out: Percent Inhibition): 23%

SMILES | pIC50 (canine TRPM8) | inhibition at 0.5 µM (canine TRPM8) [%] | inhibition at 0.2 µM (canine TRPM8) [%] | inhibition in vivo at 30 mg/kg (Male Sprague Dawley rats [1]) [%] | further results
Cc1c(N(CCC2CC2)S(=O)(=O)c2ccc(C(=O)[O-])cc2)sc2ccccc12.[Na+] [Compound 400, Sodium, N-(2-Cyclopropylethyl)-N-(3-methylbenzo[b]thiophen-2-yl)-4-carboxy-benzenesulfonamide] | 8.30 |  |  |  | % Inh @ 0.2 (μM) (canine TRPM8): 102%; % Inhibition (Male Sprague Dawley rats [3]; dose 30 p.o., HPbCD, 30 min pre-icilin): 84%; Percent Inhibition (Male Sprague Dawley rats [2]; 30 mg/kg p.o., Water, pretreatment 1 hr, Na salt form): 40%; Percent Inhibition (Male Sprague Dawley rats [2]; 30 mg/kg p.o., Water, pretreatment 3 hr, Na salt form): 25%
CC(C)(O)c1c(N(CCC(F)(F)F)S(=O)(=O)c2ccc(C(=O)[O-])cc2)sc2ccccc12.[Na+] [Compound 505, Sodium, N-(3-(1-Hydroxy-1-methyl-ethyl)-benzo[b]thiophen-2-yl)-N-(3,3,3-trifluoro-propyl)-4-carboxy-benzenesulfonamide] | 7.62 |  |  |  | % Inh @ 0.2 (μM) (canine TRPM8): 98%; % Inhibition (Male Sprague Dawley rats [3]; dose 30 p.o., HPbCD, 60 min pre-icilin): 72%; Percent Inhibition (Male Sprague Dawley rats [2]; 30 mg/kg p.o., HPbCD, pretreatment 1 hr, Na salt form): 11%
CC(C)(O)c1c(N(CCCCC(F)(F)F)S(=O)(=O)c2ccc(C(=O)[O-])cc2)sc2ccccc12.[Na+] [Compound 658, Sodium, N-(3-(1-Hydroxy-1-methyl-ethyl)-benzo[b]thiophen-2-yl)-N-(5,5,5-trifluoro-pentyl)-4-carboxy-benzenesulfonamide] | 8.37 |  |  |  | % Inh @ 0.2 (μM) (canine TRPM8): 101%; % Inhibition (Male Sprague Dawley rats [3]; dose 10 p.o., HPbCD, 60 min pre-icilin): 63%
